Source: patent publication US20240197695A1, “COMPOUND FOR PREVENTION OR TREATMENT OF KIDNEY DISEASE” (ONCOCROSS CO.,LTD, priority 2021, published 2024)
Marks after values point to notes of the source that are not given here.

Experiments:
Type in all cases: in vivo, mice (C57BL/6)
[1] = test system: diabetic nephrosis animal models
Method: (§1) STZ (Sigma-aldrich, S0130, 40 mg/kg b.w., in 0.1 M citrate buffer pH 4.5) was intraperitoneally administered to 9-week-old male mice (C57BL/6) once/1 day for 5 days to perform a first disease induction. After 7 weeks of the first induction, a second induction was performed using the same method as the first induction. For 5 days of an STZ administration period for the first induction, 10% sucrose was administered as drinking water. In addition, after 14 days of the second administration, blood glucose levels were confirmed to confirm the induction rate, and the induced animals were separated into groups. Experimental substances (R)-4-{(R)-1-[7-(3,4,5-trimethoxy-phenyl)-[1,6] naphthyridin-5-yloxy]-ethyl}pyrrolidin-2-one (BI-1002494) and cromolyn (OC-101) were administered orally into the stomach at 10 mL/kg using an administration syringe (sonde) before 16:00 daily for 12 weeks at a frequency of 7 days/week at doses shown in Table 1 below, and dexamethasone was orally administered as a positive control substance.
(§2) After the observation period for mice of each group in Example 1 was terminated, all surviving animals were fasted in the same manner as when measuring blood glucose levels, and then anesthetized by inhaling isoflurane, and blood was collected from the abdominal vena cava through laparotomy. After the blood collection was completed, the veins and arteries were cut under anesthesia and exsanguinated. The collected blood was left at room temperature for 30 minutes or more and then centrifuged at 3,000 rpm for 20 minutes. Thereafter, glucose, Blood urea nitrogen (BUN), and creatinine were analyzed using an automated blood biochemistry analyzer (Hitachi 3100, Hitachi Co. Ltd., Japan). Indoxyl sulfate (a substance that was mainly produced in the intestines to cause renal injury, and a substance that caused end-stage renal failure by advancing renal function damage in patients with renal failure during hemodialysis) was analyzed using LC MS/MS. In addition, blood insulin was analyzed according to a method represented by a commercial Mouse Insulin ELISA KIT (#AKRIN-011T, Sibayagi Co. Ltd., Japan).

[2] = test system: diabetic nephrosis animal models; test: Histopathological change (H&E) in liver, kidney, pancreas; conditions: G6/G7, 50 mg/kg oral; count in group of 10 animals
Method: as §1
At the end of the observation period, the mice in each group of Example 1 were confirmed to be dead, and the liver, kidney, and pancreas were extracted and fixed with 10% neutral buffered formalin (NBF) in at least 20 times the tissue volume. The fixed tissue was sectioned to a thickness of approximately 4 mm and then produced into a paraffin block through general tissue processing and embedding processes. Thereafter, the tissue was sectioned to a thickness of 4 μm using a rotary microtome, and then H&E staining was performed, and histopathological changes were observed.

[3] = Body weights of mice in diabetic nephrosis model; conditions: 50 mg/kg/day oral
Method: as §1

[4] = Feed intake of mice in diabetic nephrosis model; parameters: Feed intake, Mean: unit not given here; conditions: 50 mg/kg/day oral
Method: as §1

[5] = test system: diabetic nephrosis animal models; test: Changes in blood glucose levels (tail vein, blood glucose level meter); conditions: 50 mg/kg/day oral
Method: as §1
Before disease induction, excluding week 9 of administration of experimental substances to mice in each group of Example 1 above, after 2 weeks after the first induction (based on a first administration date), and after 6 weeks and 2 weeks of the second induction (based on the first administration date), blood was collected from the tail vein and blood glucose levels were measured using a blood glucose level meter (Accu-Check, Roche), and fasting was performed for 4 hours from 9:30 a.m. to 1:30.

[6] = test system: diabetic nephrosis animal models; test: Blood insulin (Mouse Insulin ELISA KIT) and HOMA-IR
Method: as §1, §2

[7] = test system: diabetic nephrosis animal models; test: Blood indoxyl sulfate by LC MS/MS; conditions: 50 mg/kg/day oral, after observation period, fasted
Method: as §1, §2

[8] = Drinking water intake of mice in diabetic nephrosis model; parameters: unit not given here; conditions: 50 mg/kg/day oral
Method: as §1

[9] = 50 mg/kg/day oral, after observation period, fasted

With `O=C(O)c1cc(=O)c2c(OCC(O)COc3cccc4oc(C(=O)O)cc(=O)c34)cccc2o1` [OC-101, cromolyn, reference compound] the “GLU compared to disease control group” value ([1]; 50 mg/kg administered group) was “decreased statistically significantly”, the “CRE, Mean” value [1, 9] was 0.1 mg/dL and the “GLU, Mean” value [1, 9] was 282.6^# mg/dL. For the same compound, the “T-CHO, Mean” value [1, 9] was 139.3 mg/dL, the “Kidney: Medullar apoptosis” value [2] was 0 and the “Kidney: Medullar mineralization” value [2] was 1. For the same compound, the “Kidney: NHL” value [2] was 8, the “Kidney: bowman's capsule hyperplasia” value [2] was 1 and the “Kidney: pappillary mineralization” value [2] was 0. The “Liver: Apoptosis” value [2] was 2, the “Liver: Cytoplasmic glycogen” value [2] was 0 and the “Liver: Eosinophlic focus of cellular alteration” value [2] was 1. For the same compound, the “Liver: Mononuclear cell infiltrate” value [2] was 3, the “Liver: NHL” value [2] was 5 and the “Pancrease: Apoptosis” value [2] was 0. For the same compound, the “Pancrease: NHL” value [2] was 6, the “Pancrease: islet degeneration” value [2] was 2 and the “Pancrease: islet hypertrophy” value [2] was 2. The “Pancrease: islet, mononuclear cell infillitrate” value [2] was 1, the Body weight, Mean ([3]; week 0) was 23.9 g and the Body weight, Mean ([3]; week 1) was 23.4 g. The Body weight, Mean ([3]; week 2) was 23.5 g, the Body weight, Mean ([3]; week 3) was 23.3 g and the Body weight, Mean ([3]; week 4) was 23.5 g. It also gave a Body weight, Mean ([3]; week 5) of 23.4 g, a Body weight, Mean ([3]; week 6) of 23.5 g and a Body weight, Mean ([3]; week 7) of 23.4 g. The Body weight, Mean ([3]; week 8) was 23.2 g, the Body weight, Mean ([3]; week 10) was 23 g and the “Feed intake, Mean” value ([4]; week 0) was 6.23. For the same compound, the “Feed intake, Mean” value ([4]; week 1) was 5.98, the “Feed intake, Mean” value ([4]; week 2) was 6.35 and the “Feed intake, Mean” value ([4]; week 3) was 5.47. For the same compound, the “Feed intake, Mean” value ([4]; week 4) was 4.28, the “Feed intake, Mean” value ([4]; week 5) was 4.51 and the “Feed intake, Mean” value ([4]; week 6) was 4.29. For the same compound, the “Feed intake, Mean” value ([4]; week 7) was 4.41, the “Feed intake, Mean” value ([4]; week 8) was 4.37 and the “Feed intake, Mean” value ([4]; week 9) was 4.51. For the same compound, the “Feed intake, Mean” value ([4]; week 10) was 4.28, the “Blood glucose level, Mean” value ([5]; week 0, 4 h fasting, in mg/dL (unit assumed)) was 300.9 and the “Blood glucose level, Mean” value ([5]; week 2, 4 h fasting, in mg/dL (unit assumed)) was 336.6. The “Blood glucose level, Mean” value ([5]; week 4, 4 h fasting) was 271.1^#, the “Blood glucose level, Mean” value ([5]; week 6, 4 h fasting) was 295.5^# and the “Blood glucose level, Mean” value ([5]; week 8, 4 h fasting) was 259.9^#. For the same compound, the “Blood glucose level, Mean” value ([5]; week 10, 4 h fasting) was 247.8^#, the “HOMA-IR compared to disease control group” value ([6]; 50 mg/kg administered group) was “decreased statistically significantly” and the “HOMA-IR, Mean” value [6, 9] was 8.8^#. The “Insulin, Mean” value [6, 9] was 0.5 ng/mL, the “Indoxyl sulfate, Mean” value [7] was 2.0 µg/mL and the “Drinking water intake, Mean” value ([8]; week 0) was 6.78. For the same compound, the “Drinking water intake, Mean” value ([8]; week 1) was 8.11, the “Drinking water intake, Mean” value ([8]; week 2) was 7.68 and the “Drinking water intake, Mean” value ([8]; week 3) was 6.99. The “Drinking water intake, Mean” value ([8]; week 4) was 7.23, the “Drinking water intake, Mean” value ([8]; week 5) was 6.78 and the “Drinking water intake, Mean” value ([8]; week 6) was 7.80. The “Drinking water intake, Mean” value ([8]; week 7) was 7.06, the “Drinking water intake, Mean” value ([8]; week 8) was 7.17 and the “Drinking water intake, Mean” value ([8]; week 9) was 7.09. For the same compound, the “Drinking water intake, Mean” value ([8]; week 10) was 6.76.
